Measured values from US11124481B2 (Exelixis, Inc., priority 2014, dated 2021).

Legend:
U87 tumor cells = assay: dynamic PET imaging in mice with orthotopically implanted U87 tumor cells; assay type: in vivo, athymic BALB/C mice
Experimental: Rodent imaging experiments were performed on a dedicated small animal microPET® F120™ scanner (Siemens Preclinical Solutions, Knoxville, Tenn.). Both static and dynamic PET imaging studies were conducted on athymic BALB/C mice (Harlan) and stereotactically implanted U87 tumor cells. The mice were administered about 6.4-7.4 MBq (0.17-0.2 mCi) of [^18F]-Cabozantinib via the tail vein. The mice were anesthetized (2% isofluorane in O2 at a flow rate of 1 mL/min) during tracer injection and throughout the imaging period. After injection, each mouse was laid in the microPET scanner. A 10 minutes transmission scan was acquired using a ^57Co point source prior to either the 2 hour dynamic scan or the 45 min static scan starting at about 15 minutes after injection. Mice were visually monitored for breathing, and a heating pad was used to maintain body temperature throughout the entire procedure. […] Data were analyzed by manually drawing standardized volumes of interest using the Siemens ASIPro VM software package version 6.6. […]
FIG. 3 depicts Positron Emission Tomography (PET) images of mice injected with [^18F]-Cabozantinib. […] A tumor:brain ratio, which is the ratio of the amount of [^18F]-Cabozantinib in the tumor compared to the amount of [^18F]-Cabozantinib in the brain in non-tumor regions, of 2.6 to 2.8 was measured for U87 stereotactically implanted tumor cells. […]

[1] = biodistribution in mice with subcutaneous U87 tumor cells (gamma counter); assay type: in vivo, athymic BALB/C mice
Experimental: . After acute sedation with isofluorane (2%) animals were sacrificed by decapitation at 15 and 60 min following tracer injection. Blood samples were collected and portions of the liver, kidneys, heart, lungs, muscles, stomach, large intestine, small intestine, bladder, spleen, brain and femur were dissected and weighed. Radioactivity of each sample was measured using a gamma counter (1480 Wizard™ 3 Automatic Gamma Counter, PerkinElmer). Decay-corrected radioactivity concentrations were calculated as percentage of injected dose per gram tissue (% ID/g).

[2] = radiometabolite analysis in mouse plasma (radio-TLC)
[3] = dynamic PET imaging in tumor-free control mice; assay type: in vivo, athymic BALB/C mice
Experimental: Rodent imaging experiments were performed on a dedicated small animal microPET® F120™ scanner (Siemens Preclinical Solutions, Knoxville, Tenn.). Both static and dynamic PET imaging studies were conducted on athymic BALB/C mice (Harlan) and stereotactically implanted U87 tumor cells. The mice were administered about 6.4-7.4 MBq (0.17-0.2 mCi) of [^18F]-Cabozantinib via the tail vein. The mice were anesthetized (2% isofluorane in O2 at a flow rate of 1 mL/min) during tracer injection and throughout the imaging period. After injection, each mouse was laid in the microPET scanner. A 10 minutes transmission scan was acquired using a ^57Co point source prior to either the 2 hour dynamic scan or the 45 min static scan starting at about 15 minutes after injection. Mice were visually monitored for breathing, and a heating pad was used to maintain body temperature throughout the entire procedure. PET data were reconstructed using an OSEM 2D algorithm into a 128×128×95 image matrix (resulting in final voxel dimensions of 0.79×0.79×0.8 mm). Dead time, decay correction, attenuation correction, and normalization were applied to all PET data. Data were analyzed by manually drawing standardized volumes of interest using the Siemens ASIPro VM software package version 6.6. […]

## COc1cc2nccc(Oc3ccc(NC(=O)C4(C(=O)Nc5ccc([18F])cc5)CC4)cc3)c2cc1OC [[^18F]-Cabozantinib, cyclopropane-1,1-dicarboxylic acid [4-(6,7-dimethoxy-quinolin-4-yloxy)-phenyl]-amide(4-[^18F]-fluoro-phenyl)amide]
U87 tumor cells; orthotopically implanted U87 mice, n=3
  SUV mean, tumor uptake: 0.50
U87 tumor cells; time activity curves over 2 hour period
  time of maximal tumor uptake post injection: 60 min
[1]; 15 minutes post injection, n=6
  tracer uptake blood: 1.8±0.2 % ID/g
  tracer uptake brain: 0.9±0.2 % ID/g
  tracer uptake femur: 2.9±1.0 % ID/g
  tracer uptake heart: 12.9±3.2 % ID/g
  tracer uptake kidneys: 14.2±3.0 % ID/g
  tracer uptake large intestines: 4.7±2.1 % ID/g
  tracer uptake liver: 14.4±3.1 % ID/g
  tracer uptake lungs: 6.5±1.1 % ID/g
  tracer uptake muscles: 4.4±1.1 % ID/g
  tracer uptake small intestines: 7.0±2.4 % ID/g
  tracer uptake spleen: 4.7±1.2 % ID/g
  tracer uptake stomach: 5.2±1.7 % ID/g
[1]; 60 minutes post injection, n=6
  tracer uptake bladder: 4.3±1.2 % ID/g
  tracer uptake blood: 2.2±0.3 % ID/g
  tracer uptake brain: 0.9±0.1 % ID/g
  tracer uptake femur: 1.8±0.8 % ID/g
  tracer uptake heart: 9.5±1.5 % ID/g
  tracer uptake kidneys: 11.7±1.5 % ID/g
  tracer uptake large intestines: 4.6±0.9 % ID/g
  tracer uptake liver: 14.0±1.9 % ID/g
  tracer uptake lungs: 4.9±0.8 % ID/g
  tracer uptake muscles: 4.2±0.3 % ID/g
  tracer uptake small intestines: 10.7±1.1 % ID/g
  tracer uptake spleen: 3.6±0.6 % ID/g
  tracer uptake stomach: 8.4±1.5 % ID/g
[1]; biodistribution, 15 and 60 minutes
  crossing of the blood brain barrier: did not appear to cross the blood brain barrier
[2]
  radiometabolites seen in plasma: Only one radiometabolite
[2]; 15 and 60 minutes after injection
  tracer remaining intact in plasma: over 80%
[3]; tumor-free control mice, summed PET images
  SUV mean, uptake in the brain: 0.19
[3]; tumor-free mice, PET
  crossing of the blood brain barrier: does not cross the blood brain barrier
